The source of these data is article PMC6009875, “Structure–activity relationships of fraxamoside as an unusual xanthine oxidase inhibitor” (Journal of Enzyme Inhibition and Medicinal Chemistry, 2017).

In test [1] the target is T1, Xanthine oxidase from bovine milk (Bos taurus, UniProt P80457).
T1 construct: Xanthine oxidase from bovine milk (0.2 U/mg); purchased Sigma-Aldrich (St. Louis, MO); host or cells: bovine milk
Put plainly: XO inhibition kinetics (Lineweaver-Burk, Ki). Type of test: biochemical. The following applies: for Inhibition mode: Lineweaver-Burk plots. The method, then:
The assay was carried out in a 500-μL final volume buffer A, constituted by 50 mM phosphate buffer, pH 7.8, 0.1 mM EDTA, supplemented with increasing concentration of xanthine as substrate in the absence or in the presence of variable amounts of the selected inhibitor. The assay was initiated by adding 10 μL of 160 U/L XO solution to the reaction mixture, without or with inhibitors, and it was followed in kinetics by reading the absorbance up to 2 min at 20 °C, thus calculating the rate of acid uric formation in the linear range of the reaction. The kinetic parameters of the XO reaction were derived from Lineweaver–Burk plots obtained measuring the rate of uric acid formation at different xanthine concentration (ranging between 0.4 and10 μM). Inhibition studies were carried out by measuring the kinetic parameters in the presence of different inhibitors. […] Km/Ki + Km.
The kinetic parameters of XO were determined by Lineweaver–Burk plot using a standard curve-fitting program. At each single concentration of substrate, the activity was evaluated in triplicate. […] Correlation and regression analyses and statistical analysis were made with Student’s t-test, using the software KaleidaGraph (Reading, PA). p values lower than 0.05 were considered to be significant.

In test [2] the target is T1, Xanthine oxidase from bovine milk. Put plainly: XO activity assay (IC50, uric acid formation at 295 nm). It counts as biochemical. The following applies: total absence of methanol; 50 μM xanthine, pH 7.8, 20 °C. As for the experimental part: The assay was carried out in a 500 μL final volume reaction mixture, containing 50 mM phosphate buffer, pH 7.8, 0.1 mM EDTA, 50 μM xanthine as substrate, 3.2 U/L XO, and different amounts of each compound as potential XO inhibitor. The assay was started by adding 10 μL of the enzyme stock solution to the reaction mixture and followed by reading the absorbance up to 2 min at 20 °C, thus calculating the corresponding rate in the linear range of the reaction. For each sample, the extent of the inhibitory effect (i) was calculated as i = (V0 – Vi)/V0 where V0 and Vi are respectively the rate measured in the absence or presence at least six different amounts of the compounds used [I], whose range of concentration was properly chosen.

Test [3] concerns XO. On the set-up: method as in Flemmig et al.[52]. To be noted: ref Flemmig et al.[52], cited from earlier work.
For test [4], the system named is XO. Set-up: method as in PMID 25102361. The following applies: read-out: IC50 (XO inhibitory effect); cited from earlier work.

Where two headings read alike, the source gives them in different places.

T1 sequence (P80457 whole entry): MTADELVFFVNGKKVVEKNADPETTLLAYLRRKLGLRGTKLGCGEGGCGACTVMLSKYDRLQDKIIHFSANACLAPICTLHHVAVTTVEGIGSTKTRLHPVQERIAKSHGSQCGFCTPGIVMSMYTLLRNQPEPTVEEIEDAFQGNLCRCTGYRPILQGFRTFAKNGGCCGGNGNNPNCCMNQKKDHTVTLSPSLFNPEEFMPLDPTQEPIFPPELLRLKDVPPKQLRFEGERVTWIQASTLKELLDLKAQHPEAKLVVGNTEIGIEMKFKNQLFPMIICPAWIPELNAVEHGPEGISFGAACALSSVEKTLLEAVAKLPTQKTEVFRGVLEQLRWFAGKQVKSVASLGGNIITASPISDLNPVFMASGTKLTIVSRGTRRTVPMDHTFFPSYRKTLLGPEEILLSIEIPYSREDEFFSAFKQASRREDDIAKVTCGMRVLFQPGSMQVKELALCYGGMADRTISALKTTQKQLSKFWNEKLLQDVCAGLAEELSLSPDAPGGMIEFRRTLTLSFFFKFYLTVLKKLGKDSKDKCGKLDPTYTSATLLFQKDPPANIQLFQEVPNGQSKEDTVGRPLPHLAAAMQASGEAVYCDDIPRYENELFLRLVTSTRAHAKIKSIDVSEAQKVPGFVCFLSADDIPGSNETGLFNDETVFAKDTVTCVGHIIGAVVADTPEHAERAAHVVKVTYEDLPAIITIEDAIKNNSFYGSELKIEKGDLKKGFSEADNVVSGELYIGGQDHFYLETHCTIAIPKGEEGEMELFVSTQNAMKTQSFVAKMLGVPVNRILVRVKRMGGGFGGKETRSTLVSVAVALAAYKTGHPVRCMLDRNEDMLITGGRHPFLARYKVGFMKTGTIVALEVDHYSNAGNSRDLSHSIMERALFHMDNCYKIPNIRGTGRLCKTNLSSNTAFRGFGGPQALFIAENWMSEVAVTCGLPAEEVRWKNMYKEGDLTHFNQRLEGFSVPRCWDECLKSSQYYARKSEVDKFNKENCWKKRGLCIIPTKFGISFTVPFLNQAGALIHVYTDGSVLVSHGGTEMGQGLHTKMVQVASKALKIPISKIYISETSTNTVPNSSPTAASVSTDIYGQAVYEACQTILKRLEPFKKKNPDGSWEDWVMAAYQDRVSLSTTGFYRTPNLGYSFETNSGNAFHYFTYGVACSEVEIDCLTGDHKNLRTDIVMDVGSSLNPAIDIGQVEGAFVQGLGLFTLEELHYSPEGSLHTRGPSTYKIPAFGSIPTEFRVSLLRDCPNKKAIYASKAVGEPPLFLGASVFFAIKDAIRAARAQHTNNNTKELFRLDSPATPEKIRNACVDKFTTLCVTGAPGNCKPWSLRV

Consider `Oc1ncnc2[nH]ncc12` [Allopurinol, allopurinol, reference compound], for which the Inhibition mode entry in test [1] is given as “competitive inhibition mode”.
`C/C=C1/[C@H]2OC=C(C(=O)OC)[C@H]1CC(=O)OC[C@@H](c1ccc(O)c(O)c1)OC[C@H]1O[C@@H](O2)[C@H](O)[C@@H](O)[C@@H]1O` [Compound 1, fraxamoside] gave an IC50 in test [2] of 16.1 ± 0.7 µM. Besides, the values for the Inhibition mode result in test [1] and in test [1] (listed as fraxamoside) were “Competitive” and “competitively inhibited”, respectively. Moreover, in test [1] (fraxamoside Ki versus oleuropein Ki), the “Ki lower than that of oleuropein (fold)” value was “at least 50 times”. For the same compound, in test [1] (secondary plot of K'm versus [I], xanthine 0.4-10 μM, pH 7.8, 20 °C), the Ki was found to be 0.9 ± 0.25 µM.
The compound `C/C=C1/[C@H](O[C@@H]2O[C@H](CO)[C@@H](O)[C@H](O)[C@H]2O)OC=C(C(=O)OC)[C@H]1CC(=O)OCCc1ccc(O)c(O)c1` [Compound 2, oleuropein] yielded an IC50 in test [2] of 335 ± 17 µM. The Inhibition mode entry in the test on XO [3] is “Competitive^a”; in the test with XO [3] (listed as oleuropein) it was “competitive inhibition mode”. In addition, at XO [3] (read-out: Ki), the Ki is 53 µM.
As for `C/C=C1/[C@H](O[C@@H]2O[C@H](CO)[C@@H](O)[C@H](O)[C@H]2O)OC=C(C(=O)OC)[C@H]1CC(=O)O` [Compound 3, oleoside 11-methyl ester], the IC50 in test [2] worked out at 259 ± 13 µM.
The compound `OCCc1ccc(O)c(O)c1` [Compound 4, hydroxytyrosol] returned an IC50 in test [2] of 1130 ± 22 µM. Also, at XO [3], the Ki entry is on record as “No inhibition^a”.
Consider `O=c1c(O[C@@H]2O[C@H](CO)[C@@H](O)[C@H](O)[C@H]2O)c(-c2ccc(O)c(O)c2)oc2cc(O)cc(O)c12` [quercetin 3-O-glucoside], for which the IC50 in the test on XO [4] is 54.6 µM.
With `O=c1c(O)c(-c2ccc(O)c(O)c2)oc2cc(O)cc(O)c12` [quercetin], in the test on XO [4], the IC50 was 1.9 µM.
